Data on 32 molecules can be found in ChEMBL document CHEMBL1142875, “Synthesis and biological evaluation of 4-alkylamino-6-(2-hydroxyethyl)-2-methylthiopyrimidines as new rubella virus inhibitors” (Eur J Med Chem, 2007).

Each structure is given as a SMILES string. Where only a bound is given, the exact number is not on record here.

Data set [1] is described as follows: Antiviral activity against Rubella virus strain THERIEN in Vero cells. In kind it is functional, cell-based.
Data set [2] in a line: Cytotoxicity against Vero cells after 48 hrs. In kind it is cell-based. The note with it: chlorocebus sabaeus.
Data set [3] is described as follows: Selectivity index, Ratio of CC50 for Vero cells to IC50 for Rubella virus strain THERIEN. The class given is functional.
Data set [4] can be described thus: Inhibition of Rubella virus strain THERIEN in Vero cells after 48 hrs of high multiplicity infection by plaque assay. The class given is functional. Details: concentration or dose not given beside the values.

The term IC50 denotes the concentration that gives 50% inhibition. By CC50 is commonly meant the concentration that lowers cell viability or growth by half. Broadly, the Inhibition is the relative decrease from the control value, in per cent. The molecule `C=CCNc1nc(SC)nc(CCO)c1Cl` registered an IC50 in data set [1] of 43.5 µM. The CC50 at 48 h in data set [2] turned out to be 481 µM. Further, the “Ratio CC50/IC50” value in data set [3] is reported as 11.1. In data set [4], this molecule displayed an Inhibition of 83%.
For `C#CCNc1nc(SC)nc(CCO)c1I` the same measures were 34.1 µM, 716 µM, 21 and 97.3%.
Consider `C=CCNc1nc(SC)nc(CCO)c1I`, for which inhibition in data set [1] was half-maximal at 15.7 µM (IC50). In addition, in data set [2], it took 356 µM to reach half-maximal cytotoxicity (CC50 at 48 h). Moreover, the “Ratio CC50/IC50” value in data set [3] was determined as 22.7. Also, in data set [4], the Inhibition amounted to 93.9%.
With `C#CCNc1nc(SC)nc(CCO)c1Br`, the IC50 in data set [1] stood at 149 µM. Moreover, in data set [2], half-maximal cytotoxicity (CC50 at 48 h) was put at 827 µM. Further, in data set [3], the “Ratio CC50/IC50” value was 5.6. Further, in data set [4], the Inhibition is on record as 94.4%.
For `C=CCNc1nc(SC)nc(CCO)c1Br` the same measures were 50.9 µM, 411 µM, 8.1 and 86.9%.
In the same order, the values of `CSc1nc(CCO)cc(NCc2ccc(Cl)cc2Cl)n1` are 48 µM, 182 µM, 3.8 and 76.1%.
`C#CCNc1cc(CCO)nc(SC)n1` had an IC50 in data set [1] of 108 µM. Also, in data set [2], the CC50 at 48 h amounted to 1120 µM. For the same molecule, in data set [3], the “Ratio CC50/IC50” value is given as 10.4. The same molecule yielded an Inhibition in data set [4] of 98.8%.
For `CCCCN(CCCC)c1cc(CCO)nc(SC)n1` the same measures were 13.5 µM, 52.5 µM, 3.9 and 87%.
With `CSc1nc(CCO)cc(N(CCO)CCO)n1`, the IC50 in data set [1] came out at 170 µM. For the same molecule, it took 1820 µM to reach half-maximal cytotoxicity in data set [2] (CC50 at 48 h). Also, the “Ratio CC50/IC50” value in data set [3] is given as 10.7. This molecule also registered an Inhibition in data set [4] of 95.7%.
Turning to `CSc1nc(CCO)cc(N2CCC2)n1`, in data set [1], the IC50 is greater than 278 µM. For the same molecule, the CC50 at 48 h in data set [2] turned out to be 556 µM. The “Ratio CC50/IC50” value in data set [3] is recorded as less than 2. For the same molecule, the Inhibition in data set [4] amounted to 35.6%.
In data set [1], `CSc1nc(CCO)cc(N2CCN(C)CC2)n1` showed an IC50 greater than 233 µM. Besides, the CC50 at 48 h in data set [2] is 466 µM. The “Ratio CC50/IC50” value in data set [3] is less than 2. Also, in data set [4], the Inhibition was 20.6%.
For `CSc1nc(CCO)cc(N2CCSCC2)n1` the same measures were greater than 231 µM, 461 µM, less than 2 and 45.2%.
For `CSc1nc(CCO)cc(N2CCN(c3cccc(C(F)(F)F)c3)CC2)n1` the same measures were 17.6 µM, 39.2 µM, 2.2 and 58.9%.
For `CSc1nc(CCO)cc(N2CCN(c3ccccc3)CC2)n1` the same measures were 57 µM, 189 µM, 3.3 and 90%.
Turning to `CSc1nc(CCO)cc(N2CCSC2)n1`, the IC50 in data set [1] amounted to 22.6 µM. For the same molecule, the CC50 at 48 h in data set [2] worked out at 486 µM. The “Ratio CC50/IC50” value in data set [3] was 21.6. The molecule further gave an Inhibition in data set [4] of 95.3%.
Turning to `CSc1nc(CCO)cc(N2CCC(C)CC2)n1`, in data set [1], half-maximal inhibition (IC50) required 47.8 µM. In data set [2], this molecule displayed a CC50 at 48 h of 233 µM. Moreover, in data set [3], the “Ratio CC50/IC50” value was 4.9. This molecule also displayed an Inhibition in data set [4] of 96.5%.
For `CSc1nc(CCO)cc(N2CCCC2)n1` the same measures were 48.1 µM, 523 µM, 10.9 and 72.6%.
For `CSc1nc(CCO)cc(N(C)Cc2ccccc2)n1` the same measures were greater than 54 µM, 108 µM, less than 2 and 31.9%.
For `CCCN(C)c1cc(CCO)nc(SC)n1` the same measures were 25.3 µM, 519 µM, 20.5 and 94.2%.
`C#CCN(C)c1cc(CCO)nc(SC)n1` showed a half-inhibitory concentration (IC50) in data set [1] of 114 µM. This molecule gave a CC50 at 48 h in data set [2] of 1050 µM. Moreover, the “Ratio CC50/IC50” value in data set [3] is 9.3. In data set [4], the Inhibition is 92.1%.
The molecule `CCCCCNc1nc(SC)nc(CCO)c1Cl` had an IC50 in data set [1] of 16.2 µM. This molecule yielded a CC50 at 48 h in data set [2] of 108 µM. Moreover, the “Ratio CC50/IC50” value in data set [3] amounted to 6.6. The same molecule yielded an Inhibition in data set [4] of 66.4%.
In the same order, the values of `CCCCCNc1nc(SC)nc(CCO)c1I` are 27.5 µM, 81.8 µM, 3 and 95.1%.
In data set [1], `CCCCCNc1nc(SC)nc(CCO)c1Br` gave an IC50 of 37.4 µM. This molecule gave a CC50 at 48 h in data set [2] of 93.3 µM. Besides, the “Ratio CC50/IC50” value in data set [3] amounted to 2.5. Further, the Inhibition in data set [4] was found to be 60%.
In the same order, the values of `CCCCCNc1cc(CCO)nc(SC)n1` are 21.6 µM, 245 µM, 11.4 and 94.7%.
For `COc1ccccc1N1CCN(c2cc(CCO)nc(SC)n2)CC1` the same measures were 27.8 µM, 174 µM, 6.2 and 96.1%.
In the same order, the values of `CSc1nc(CCO)cc(N2CCN(C(C)=O)CC2)n1` are 49 µM, 422 µM, 8.6 and 65.6%.
As to `COc1ccc(Nc2cc(CCO)nc(SC)n2)cc1`, the IC50 in data set [1] is greater than 215 µM. The midpoint of cytotoxicity in data set [2], the CC50 at 48 h, lay at 430 µM. Besides, the “Ratio CC50/IC50” value in data set [3] is listed as less than 2. The molecule further registered an Inhibition in data set [4] of 43.3%.
For `C=CCN(CC=C)c1cc(CCO)nc(SC)n1` the same measures were 112 µM, 249 µM, 2.2 and 54.7%.
For `CSc1nc(CCO)cc(N2CCN(c3ccc(F)cc3)CC2)n1` the same measures were 51.7 µM, 180 µM, 3.5 and 93.2%.
Molecule `CSc1nc(CCO)cc(N(C)C)n1` registered a concentration for half-maximal inhibition (IC50) in data set [1] of 80.7 µM. The midpoint of cytotoxicity in data set [2], the CC50 at 48 h, lay at 587 µM. Moreover, the “Ratio CC50/IC50” value in data set [3] is given as 7.3. In data set [4], this molecule returned an Inhibition of 92.8%.
In the same order, the values of `C#CCNc1nc(SC)nc(CCO)c1Cl` are 136 µM, 485 µM, 3.6 and 85.4%.
On to `CCCN(CCC)c1cc(CCO)nc(SC)n1`, for which, in data set [1], the IC50 is greater than 29 µM. In data set [2], the CC50 at 48 h turned out to be 58 µM. Also, the “Ratio CC50/IC50” value in data set [3] was less than 2. The same molecule showed an Inhibition in data set [4] of 0%.
